Where “and” joins values, the source holds several entries; their conditions need not be identical. Equal values may be shown once. Inconclusive results and toxic doses are left out. Rule as the data show it: active = T/C of 150% or more; inactive = T/C below 125%.
System: L1210 leukemia ip in BDF1 mice, survival T/C
Test: NCI In Vivo Anticancer Drug Screen. Data for tumor model L1210 Leukemia (intraperitoneal) in B6D2F1 (BDF1) mice
Details: endpoint: mean survival time, higher = longer survival
Method in brief: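 Survival endpoint. Drug-treated group vs vehicle group, expressed as T divided by C. Tumor passaged by transplantation.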

[1] = dose: 100.0 mg/kg/injection, schedule: Q04DX003 (ip), vehicle: saline with Tween-80
[2] = dose: 200.0 mg/kg/injection, schedule: Q04DX003 (ip), vehicle: saline with Tween-80
[3] = dose: 400.0 mg/kg/injection, schedule: Q04DX003 (ip), vehicle: saline with Tween-80
[4] = dose: 100.0 mg/kg/injection, schedule: Q01DX009 (ip), vehicle: saline with Tween-80
[5] = dose: 400.0 mg/kg/injection, schedule: Q01DX009 (ip), vehicle: saline with Tween-80

Measured: T/C

O=[N+]([O-])c1ccc(C(=Nc2ccccc2)Nc2ccccc2)cc1
inactive: [1] 101 % of control | [2] 98 % of control | [3] 98 % of control

CC(C)=CCC/C(C)=C\CCl
inactive: dose: 25.0 mg/kg/injection, schedule: Q01DX009 (ip), vehicle: saline with Tween-80 93 % of control | dose: 50.0 mg/kg/injection, schedule: Q01DX009 (ip), vehicle: saline with Tween-80 106 % of control | [4] 97 % of control and 101 % of control | [1] 104 % of control | [2] 93 % of control | [3] 90 % of control

CC(=O)OCCC/C(=C\c1ccccc1)[N+](=O)[O-]
inactive: dose: 100.0 mg/kg/injection, schedule: Q01DX001 (ip), vehicle: saline 107 % of control

CC(=O)OCC(C)OC(C)=O (stereo unspecified)
inactive: dose: 100.0 mg/kg/injection, schedule: Q01DX009 (ip), vehicle: saline 98 % of control | dose: 100.0 mg/kg/injection, schedule: Q04DX003 (ip), vehicle: saline 106 % of control | dose: 200.0 mg/kg/injection, schedule: Q01DX009 (ip), vehicle: saline 95 % of control | dose: 200.0 mg/kg/injection, schedule: Q04DX003 (ip), vehicle: saline 97 % of control | dose: 400.0 mg/kg/injection, schedule: Q01DX009 (ip), vehicle: saline 92 % of control | dose: 400.0 mg/kg/injection, schedule: Q04DX003 (ip), vehicle: saline 97 % of control

O=C(/C=C/c1ccccc1)NC(=S)Nc1ccccc1C(F)(F)F
inactive: dose: 12.5 mg/kg/injection, schedule: Q01DX009 (ip), vehicle: saline with Tween-80 93 % of control and 100 % of control | dose: 100.0 mg/kg/injection, schedule: Q01DX001 (ip), vehicle: saline with Tween-80 92 % of control | dose: 100.0 mg/kg/injection, schedule: Q04DX002 (ip), vehicle: saline with Tween-80 91 % of control | [1] 103 % of control | dose: 200.0 mg/kg/injection, schedule: Q01DX001 (ip), vehicle: saline with Tween-80 97 % of control | dose: 200.0 mg/kg/injection, schedule: Q04DX002 (ip), vehicle: saline with Tween-80 95 % of control and 101 % of control | [2] 91 % of control | dose: 400.0 mg/kg/injection, schedule: Q01DX001 (ip), vehicle: saline with Tween-80 112 % of control | [5] 86 % of control | dose: 400.0 mg/kg/injection, schedule: Q04DX002 (ip), vehicle: saline with Tween-80 93 % of control and 95 % of control | [3] 91 % of control

CSc1ccc(NC(=O)Nc2ccc(NC(C)=O)cc2)cc1
inactive: [4] 97 % of control | dose: 200.0 mg/kg/injection, schedule: Q01DX009 (ip), vehicle: saline with Tween-80 98 % of control | [5] 97 % of control

O=C(O)C(=O)c1ccccc1NC(=O)c1ccc(Cl)cc1
inactive: dose: 50.0 mg/kg/injection, schedule: Q04DX002 (ip), vehicle: Klucel (hydroxypropylcellulose) (HPC) 101 % of control | dose: 100.0 mg/kg/injection, schedule: Q04DX002 (ip), vehicle: Klucel (hydroxypropylcellulose) (HPC) 93 % of control | dose: 200.0 mg/kg/injection, schedule: Q04DX002 (ip), vehicle: Klucel (hydroxypropylcellulose) (HPC) 93 % of control

Oc1ccccc1C=NCCN1CC1.Oc1ccccc1C=NCCN1CC1.[Cu]
inactive: dose: 6.25 mg/kg/injection, schedule: Q01DX001 (ip), vehicle: Klucel (hydroxypropylcellulose) (HPC) 88 % of control | dose: 12.5 mg/kg/injection, schedule: Q01DX001 (ip), vehicle: Klucel (hydroxypropylcellulose) (HPC) 95 % of control | dose: 25.0 mg/kg/injection, schedule: Q01DX001 (ip), vehicle: Klucel (hydroxypropylcellulose) (HPC) 95 % of control

From PubChem BioAssay AID248 (DTP/NCI, 2004)
